Assay results: the NIST ThermoML archive (doi:10.1021/je060271a)
Where “and” joins values, the source holds several entries; their conditions need not be identical. Equal values may be shown once.

Details: 303.16 K, Liquid, Vibrating tube method

CCCC(=O)OCC(COC(=O)CCC)(COC(=O)CCC)COC(=O)CCC [pentaerythritol tetrabutyrate]
Details	mass density
218.9 kPa	1042.3 kg/m3
232.4 kPa	1042.3 kg/m3
246.9 kPa	1042.3 kg/m3
262 kPa	1042.5 kg/m3
324.9 kPa	1042.3 kg/m3
472.3 kPa	1042.4 kg/m3
544.7 kPa	1042.5 kg/m3
563.5 kPa	1042.5 kg/m3
587.1 kPa	1042.5 kg/m3
607.3 kPa	1042.4 kg/m3
629 kPa	1042.6 kg/m3
656.4 kPa	1042.6 kg/m3
678.3 kPa	1042.6 kg/m3
696.6 kPa	1042.6 kg/m3
718.1 kPa	1042.7 kg/m3
737.2 kPa	1042.6 kg/m3
757 kPa	1042.6 kg/m3
776.8 kPa	1042.6 kg/m3
796 kPa	1042.7 kg/m3
818.2 kPa	1042.7 kg/m3
836.3 kPa	1042.7 kg/m3
853.6 kPa	1042.7 kg/m3
873.1 kPa	1042.8 kg/m3
890.5 kPa	1042.7 kg/m3
907.8 kPa	1042.7 kg/m3
929.5 kPa	1042.8 kg/m3
947.9 kPa	1042.7 kg/m3
966.4 kPa	1042.8 kg/m3
985.3 kPa	1042.9 kg/m3
1007.9 kPa	1042.8 kg/m3
1026.6 kPa	1042.8 kg/m3
1044.5 kPa	1042.8 kg/m3
1062.2 kPa	1042.9 kg/m3
1083.2 kPa	1043 kg/m3
1101 kPa	1042.8 kg/m3
1119.2 kPa	1042.9 kg/m3
1141.3 kPa	1042.9 kg/m3
1160.5 kPa	1042.9 kg/m3
1180.3 kPa	1042.9 kg/m3
1203.2 kPa	1042.8 kg/m3
1223.6 kPa	1042.8 kg/m3
1243.7 kPa	1043 kg/m3
1290.1 kPa	1043 kg/m3
1358.8 kPa	1043.1 kg/m3
1379.7 kPa	1043 kg/m3
1401.5 kPa	1043 kg/m3
1428.1 kPa	1043.1 kg/m3
1450.3 kPa	1043.1 kg/m3
1473.3 kPa	1043.1 kg/m3
1501.7 kPa	1043.2 kg/m3
1526.2 kPa	1043.1 kg/m3
1550.9 kPa	1043.1 kg/m3
1583.5 kPa	1043.2 kg/m3
1604.5 kPa	1043.2 kg/m3
1630.2 kPa	1043.2 kg/m3
1662.3 kPa	1043.2 kg/m3
1689.4 kPa	1043.3 kg/m3
1717.5 kPa	1043.3 kg/m3
1751.5 kPa	1043.3 kg/m3
1780.2 kPa	1043.3 kg/m3
1810 kPa	1043.3 kg/m3
1846.1 kPa	1043.4 kg/m3
1877 kPa	1043.3 kg/m3
1908.8 kPa	1043.5 kg/m3
1942.4 kPa	1043.5 kg/m3
1983.9 kPa	1043.5 kg/m3
2011.5 kPa	1043.6 kg/m3
2053.9 kPa	1043.4 kg/m3
2086.5 kPa	1043.6 kg/m3
2109.2 kPa	1043.5 kg/m3
2134.7 kPa	1043.5 kg/m3
2155.2 kPa	1043.4 kg/m3
2176 kPa	1043.6 kg/m3
2200.7 kPa	1043.6 kg/m3
2220.8 kPa	1043.6 kg/m3
2241.1 kPa	1043.6 kg/m3
2266.1 kPa	1043.6 kg/m3
2286.5 kPa	1043.6 kg/m3
2308 kPa	1043.7 kg/m3
2333 kPa	1043.7 kg/m3
2354.7 kPa	1043.7 kg/m3
2376.6 kPa	1043.7 kg/m3
2398.4 kPa	1043.7 kg/m3
2422.9 kPa	1043.8 kg/m3
2443.3 kPa	1043.9 kg/m3
2464.3 kPa	1043.6 kg/m3
2488.8 kPa	1043.8 kg/m3
2509.4 kPa	1043.8 kg/m3
2530.2 kPa	1043.8 kg/m3
2554.7 kPa	1043.7 kg/m3
2576.2 kPa	1043.9 kg/m3
2597.2 kPa	1043.9 kg/m3
2618.2 kPa	1043.9 kg/m3
2643 kPa	1043.9 kg/m3
2663.8 kPa	1044 kg/m3
2685.1 kPa	1043.9 kg/m3
2711.1 kPa	1044 kg/m3
2732.8 kPa	1044 kg/m3
2754.8 kPa	1044 kg/m3
2781 kPa	1043.9 kg/m3
2802.9 kPa	1044 kg/m3
2824.7 kPa	1044 kg/m3
2874.3 kPa	1044.1 kg/m3
2897.5 kPa	1044 kg/m3
2943.5 kPa	1044.1 kg/m3
2971 kPa	1044.1 kg/m3
2993.1 kPa	1044.1 kg/m3
3014.9 kPa	1044.1 kg/m3
3041.8 kPa	1044.2 kg/m3
3063.6 kPa	1044.2 kg/m3
3085.8 kPa	1044.2 kg/m3
3108.7 kPa	1044.3 kg/m3
3136.3 kPa	1044.2 kg/m3
3159.3 kPa	1044.2 kg/m3
3182.9 kPa	1044.2 kg/m3
3207 kPa	1044.3 kg/m3
3235.1 kPa	1044.3 kg/m3
3258.3 kPa	1044.2 kg/m3
3282.9 kPa	1044.4 kg/m3
3311.7 kPa	1044.3 kg/m3
3336.1 kPa	1044.3 kg/m3
3361.2 kPa	1044.5 kg/m3
3386.4 kPa	1044.3 kg/m3
3416 kPa	1044.5 kg/m3
3440.9 kPa	1044.4 kg/m3
3466.4 kPa	1044.4 kg/m3
3492.4 kPa	1044.4 kg/m3
3523.8 kPa	1044.5 kg/m3
3549.8 kPa	1044.5 kg/m3
3576.6 kPa	1044.5 kg/m3
3603.3 kPa	1044.5 kg/m3
3635.4 kPa	1044.6 kg/m3
3661.7 kPa	1044.6 kg/m3
3688.4 kPa	1044.7 kg/m3
3710.9 kPa	1044.6 kg/m3
3733.8 kPa	1044.6 kg/m3
3756.6 kPa	1044.6 kg/m3
3784.2 kPa	1044.7 kg/m3
3807.4 kPa	1044.6 kg/m3
3831.5 kPa	1044.7 kg/m3
3857.6 kPa	1044.7 kg/m3
3881.3 kPa	1044.7 kg/m3
3909.9 kPa	1044.8 kg/m3
3931.4 kPa	1044.7 kg/m3
3952.7 kPa	1044.7 kg/m3
3974.1 kPa	1044.8 kg/m3
3999.8 kPa	1044.9 kg/m3
4021.6 kPa	1044.7 kg/m3
4043.6 kPa	1044.8 kg/m3
4069.7 kPa	1044.7 kg/m3
4092.1 kPa	1044.9 kg/m3
4114.1 kPa	1044.9 kg/m3
4137.5 kPa	1044.9 kg/m3
4161.7 kPa	1045 kg/m3
4182.5 kPa	1044.9 kg/m3
4206.7 kPa	1045.1 kg/m3
4227.1 kPa	1044.9 kg/m3
4251.9 kPa	1044.9 kg/m3
4272.5 kPa	1044.9 kg/m3
4293.5 kPa	1045.1 kg/m3
4314.4 kPa	1045 kg/m3
4335.5 kPa	1045 kg/m3
4361 kPa	1045.1 kg/m3
4381.9 kPa	1045 kg/m3
4403.9 kPa	1045 kg/m3
4429.5 kPa	1045.1 kg/m3
4451.4 kPa	1045.1 kg/m3
4473.3 kPa	1044.9 kg/m3
4495 kPa	1045.2 kg/m3
4520.9 kPa	1045.2 kg/m3
4542.9 kPa	1045.2 kg/m3
4569.8 kPa	1045.3 kg/m3
4592.6 kPa	1045.1 kg/m3
4616.5 kPa	1045.2 kg/m3
4644.7 kPa	1045.3 kg/m3
4667.4 kPa	1045.2 kg/m3
4686.4 kPa	1045.3 kg/m3
4703.6 kPa	1045.4 kg/m3
4720.4 kPa	1045.3 kg/m3
4741.5 kPa	1045.3 kg/m3
4758.3 kPa	1045.4 kg/m3
4771.9 kPa	1045.4 kg/m3
4786.8 kPa	1045.4 kg/m3
4797.7 kPa	1045.2 kg/m3
4827.1 kPa	1045.4 kg/m3
4830.1 kPa	1045.3 kg/m3
4830.9 kPa	1045.3 kg/m3
4834.9 kPa	1045.4 kg/m3
4837.9 kPa	1045.4 kg/m3
4839.4 kPa	1045.4 kg/m3
4840.5 kPa	1045.3 kg/m3
4841.7 kPa	1045.4 kg/m3
4842.2 kPa	1045.4 kg/m3
4842.7 kPa	1045.4 kg/m3
4842.9 kPa	1045.3 kg/m3
4843.4 kPa	1045.4 kg/m3 and 1045.3 kg/m3
4843.9 kPa	1045.3 kg/m3 and 1045.4 kg/m3
4844.1 kPa	1045.3 kg/m3
4844.4 kPa	1045.4 kg/m3
4865 kPa	1045.3 kg/m3
4897.7 kPa	1045.4 kg/m3
4931.1 kPa	1045.4 kg/m3
4970.1 kPa	1045.4 kg/m3
4994.6 kPa	1045.4 kg/m3
5016.4 kPa	1045.4 kg/m3
5038.9 kPa	1045.5 kg/m3
5061.8 kPa	1045.5 kg/m3
5088.8 kPa	1045.5 kg/m3
5111.4 kPa	1045.4 kg/m3
5139.1 kPa	1045.4 kg/m3
5162.8 kPa	1045.5 kg/m3
5186.5 kPa	1045.5 kg/m3
5210.6 kPa	1045.6 kg/m3
5239.4 kPa	1045.7 kg/m3
5264.7 kPa	1045.6 kg/m3
5290.3 kPa	1045.6 kg/m3
5317.3 kPa	1045.7 kg/m3
5342.9 kPa	1045.5 kg/m3
5367.5 kPa	1045.7 kg/m3
5393.1 kPa	1045.6 kg/m3
5414.2 kPa	1045.7 kg/m3
5436 kPa	1045.7 kg/m3
5462.1 kPa	1045.7 kg/m3
5484.2 kPa	1045.7 kg/m3
5506.7 kPa	1045.7 kg/m3
5533.5 kPa	1045.7 kg/m3
5556 kPa	1045.9 kg/m3
5579 kPa	1045.8 kg/m3
5603.2 kPa	1045.8 kg/m3
5627.4 kPa	1045.9 kg/m3
5651.3 kPa	1045.8 kg/m3
5674.9 kPa	1045.9 kg/m3
5703.6 kPa	1045.9 kg/m3
5728 kPa	1046 kg/m3
5753.1 kPa	1045.9 kg/m3
5783.4 kPa	1046 kg/m3
5808.8 kPa	1046 kg/m3
5831.6 kPa	1045.9 kg/m3
5852.2 kPa	1046 kg/m3
5876.5 kPa	1046.1 kg/m3
5897.6 kPa	1046.1 kg/m3
5918.4 kPa	1046.1 kg/m3
5939.8 kPa	1046.1 kg/m3
5964.7 kPa	1046.1 kg/m3
5986.2 kPa	1046.1 kg/m3
6007.4 kPa	1046.3 kg/m3
6033.9 kPa	1046.1 kg/m3
6056.2 kPa	1046.2 kg/m3
6079 kPa	1046.2 kg/m3
6101.4 kPa	1046.1 kg/m3
6124.1 kPa	1046.2 kg/m3
6142.1 kPa	1046.1 kg/m3
6159.7 kPa	1046.1 kg/m3
6178 kPa	1046.1 kg/m3
6190.3 kPa	1046.2 kg/m3
6202.4 kPa	1046.2 kg/m3
6213.1 kPa	1046.2 kg/m3
6221.2 kPa	1046.3 kg/m3
6226.4 kPa	1046.2 kg/m3
6231.1 kPa	1046.2 kg/m3
6237.5 kPa	1046.3 kg/m3
6242.1 kPa	1046.3 kg/m3
6247.5 kPa	1046.2 kg/m3
6252.7 kPa	1046.3 kg/m3
6258.9 kPa	1046.2 kg/m3
6263.7 kPa	1046.2 kg/m3
6268.7 kPa	1046.4 kg/m3
6273.9 kPa	1046.3 kg/m3
6280.5 kPa	1046.3 kg/m3
6285.5 kPa	1046.3 kg/m3
6290.3 kPa	1046.4 kg/m3
6296 kPa	1046.2 kg/m3
6300.7 kPa	1046.2 kg/m3
6304.9 kPa	1046.2 kg/m3
6309.5 kPa	1046.2 kg/m3
6312.6 kPa	1046.3 kg/m3
6314.7 kPa	1046.4 kg/m3
6316.4 kPa	1046.2 kg/m3
6325.3 kPa	1046.3 kg/m3
6353.3 kPa	1046.3 kg/m3
6384.4 kPa	1046.4 kg/m3
6414.9 kPa	1046.3 kg/m3
6445.5 kPa	1046.5 kg/m3
6469.5 kPa	1046.4 kg/m3
6493.9 kPa	1046.3 kg/m3
6597.9 kPa	1046.5 kg/m3
6628 kPa	1046.5 kg/m3
6653.7 kPa	1046.6 kg/m3
6679.6 kPa	1046.5 kg/m3
6706.4 kPa	1046.5 kg/m3
6732.8 kPa	1046.5 kg/m3
6763.9 kPa	1046.7 kg/m3
